Laboratory results reported in PubChem BioAssay (NCI).
“And” between values parts separate entries of the source, which are not always exact repeats. Equal values may be shown once.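 Interpolation was linear, between the two tested concentrations surrounding the appropriate level; five concentrations were tested over 48 hours in 96-well plates. The concentration for 50% growth inhibition is given as GI50. TGI marks complete inhibition of growth.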

Tests used:
Assay in all cases: growth of human tumour cells (NCI), 48 h
OVCAR-3 ovarian = test system: OVCAR-3 ovarian
OVCAR-4 ovarian = test system: OVCAR-4 ovarian
SK-MEL-2 melanoma = test system: SK-MEL-2 melanoma
UACC-62 melanoma = test system: UACC-62 melanoma
MDA-MB-231 breast = test system: MDA-MB-231 breast
OVCAR-5 ovarian = test system: OVCAR-5 ovarian
786-0 renal = test system: 786-0 renal
HS 578T breast = test system: HS 578T breast
ACHN renal = test system: ACHN renal
PC-3 prostate = test system: PC-3 prostate

SMILES	GI50 (OVCAR-3 ovarian)	TGI (OVCAR-3 ovarian)	GI50 (OVCAR-4 ovarian)	TGI (OVCAR-4 ovarian) [µM]	GI50 (SK-MEL-2 melanoma)	TGI (SK-MEL-2 melanoma)	GI50 (UACC-62 melanoma)	TGI (UACC-62 melanoma)	GI50 (MDA-MB-231 breast)	TGI (MDA-MB-231 breast) [µM]	GI50 (OVCAR-5 ovarian)	TGI (OVCAR-5 ovarian) [µM]	GI50 (786-0 renal)	TGI (786-0 renal) [µM]	GI50 (HS 578T breast)	TGI (HS 578T breast)	GI50 (ACHN renal)	TGI (ACHN renal)	GI50 (PC-3 prostate)	TGI (PC-3 prostate) [µM]
COc1cc(-c2nn(-c3cccc(NC(=O)c4cccc(C(F)(F)F)c4)c3)cc2-c2ccncc2)ccc1Cl	1.2 µM	2.98 µM	2.28 µM	> 50	1.56 µM	> 50 µM	1.94 µM	> 50 µM	1.24 µM	9.96	4.01 µM	> 50	2.45 µM	> 50	1.07 µM	> 50 µM	1.89 µM	> 50 µM	1.23 µM	> 50
O=C1COc2c(CCNCCN(C(=O)CCNCCc3ccc(Cl)c(Cl)c3)C3CCCCC3)ccc(O)c2N1	16.8 µM	32.1 µM	15 µM	28.9	17.2 µM	34.9 µM	15.5 µM	30.4 µM	10.5 µM	25.6	13.6 µM	28.4	17.2 µM	32.9	15.4 µM	34.9 µM	15.2 µM	29.1 µM	16 µM	30.3
COc1cc([C@H]2c3cc(O)c(OC)cc3C[C@]3(O)[C@@H]2CO[C@@H]3O)ccc1O		> 100 µM		> 100		> 100 µM		> 100 µM		> 100		> 100		> 100		> 100 µM		> 100 µM		> 100
COC(=O)C(NC(=O)c1ccccc1)c1ccc(OC)c(I)c1 (stereo unspecified)	37.4 µM	88.2 µM	94.2 µM	> 100	> 100 µM	> 100 µM	52.9 µM	> 100 µM	27.2 µM	> 100	> 100 µM	> 100	> 100 µM	> 100	77.1 µM	> 100 µM	63.8 µM	> 100 µM	40.1 µM	> 100
CS(=O)(=O)Nc1ccc(Nc2c3ccccc3nc3cc(Cl)ccc23)cc1	7.28 µM	21.5 µM	3.84 µM	21.7	9.16 µM	22.7 µM	0.988 µM	12.9 µM	4.56 µM	19.8	4.99 µM	22.3	0.857 µM	15.6	2.83 µM	40.4 µM	0.343 µM	9.57 µM	2.47 µM	19.4
COc1cc2nccc(Oc3ccc(NC(=O)C4(C(=O)Nc5ccc(F)cc5)CC4)cc3)c2cc1OC	> 10 µM and 6.03 µM	> 10 µM and 54 µM	> 10 µM and 3.79 µM	> 62.6	> 10 µM and 7.13 µM	> 10 µM and 27.9 µM	4.74 µM and 1.97 µM	> 10 µM and 32.3 µM	> 10 µM and 3.1 µM	> 40.6	> 10 µM and 3.5 µM	> 58.3	> 10 µM and 5.52 µM	> 54.9	0.45 µM and 0.857 µM	> 10 µM and 10.8 µM	> 10 µM and 3.88 µM	> 10 µM and 46.3 µM	> 10 µM and 3.42 µM	> 100
N#Cc1c(N)nc(N2CCOCC2)c(C#N)c1-c1ccc(Cl)cc1Cl	13.7 µM	41.3 µM	21.8 µM	78.2	13.6 µM	32.4 µM	10.8 µM	28.8 µM	15.9 µM	43.7	23.1 µM	71.2	19.5 µM	44.8	15.8 µM	45.9 µM			10.9 µM	35.2
CCc1c[nH]c2ncnc(N3CC[C@](N)(CNC(=O)c4ccc(F)cc4F)C3)c12	11.4 µM	> 100 µM	53.1 µM	> 100	28 µM	> 100 µM	3.33 µM	45.1 µM	48.5 µM	> 100	21.7 µM	> 100	0.479 µM	19.8	0.513 µM	24.3 µM	9.46 µM	> 100 µM	1 µM	> 91.7
c1csc(-c2[nH]nc3c2CCc2ccccc2-3)c1	3.35 µM	19.7 µM	2.12 µM	37.3	19.7 µM	37.9 µM	13.6 µM	27.8 µM	0.966 µM	19.5	0.959 µM	32.4	21.3 µM	51	14.5 µM	55.4 µM	18.1 µM	85 µM	12.5 µM	37.5
O=C(Nc1cccc(C(F)(F)F)c1)Nc1cc(S(=O)(=O)NC2CC2)ccc1-c1ccsc1	4.02 µM	14.9 µM	3.78 µM	15.4	3.15 µM	13.7 µM	2.93 µM	13.8 µM	3.43 µM	14.8	5.96 µM	20.2	6.1 µM	20.9	8.96 µM	35.8 µM	1.83 µM	3.61 µM	3.4 µM	18.6
O=C(COC(=O)[C@H](C[Se][Se]C[C@H](NC(=O)c1ccc(Br)cc1F)C(=O)OCC(=O)c1ccc(F)cc1)NC(=O)c1ccc(Br)cc1F)c1ccc(F)cc1	0.479 µM	1.27 µM	0.689 µM	1.54	1.66 µM	4.74 µM	1.69 µM	4.83 µM	1.65 µM	4.03	0.951 µM	2.72	0.9 µM	2.23	0.298 µM	1.31 µM	1.65 µM	4.18 µM	0.375 µM	1.38
CC(C)C12CCC3(CCC4C(C)(C(=O)O)CCCC4(C)C3C1)C(CN)C2 (stereo unspecified)		> 100 µM		> 100		> 100 µM		> 100 µM		> 100		90.4		54.4		> 100 µM		> 100 µM		> 100
COc1cc2c(cc1OCCCN1CCN(CCCn3c4ccccc4c4ccccc43)CC1)N=C[C@@H]1CCCN1C2=O	0.0669 µM	1.16 µM	0.0374 µM	0.357	0.159 µM	0.539 µM	0.162 µM	0.347 µM	0.217 µM	1.02	0.0625 µM	0.648	0.28 µM	1.01		0.254 µM	0.43 µM	1.27 µM	0.0585 µM	0.523
COc1ccc(C[C@H](N)C(=O)N[C@@H]2[C@@H](CO)OC(n3cnc4c(N(C)C)ncnc43)[C@@H]2O)cc1 (stereo partly specified)		0.535 µM	0.194 µM	0.926		1.23 µM	0.404 µM	1.06 µM	0.466 µM	1.22	1.14 µM	2.94		1.24	0.304 µM	2.11 µM		3.19 µM	0.311 µM	1.73
O=C1C(=O)c2c(ccc3ccccc23)-c2ccccc21	0.25 µM	0.713 µM	1.21 µM	2.5	1.73 µM	3.78 µM	1.57 µM	3.38 µM	1.63 µM	8.08	2.54 µM	7.45	3.13 µM	> 100	2.05 µM	6 µM	2.74 µM	> 100 µM	1.81 µM	6.25
CC(C)(CCc1nc2ccccc2[nH]1)C(=O)O		> 100 µM		> 100		> 100 µM		> 100 µM		> 100		> 100		> 100		> 100 µM		> 100 µM		> 100
O=C1OC(c2ccccc2)=N/C1=C\c1ccc(N(CCCl)CCCl)cc1		> 100 µM		> 100		> 100 µM		> 100 µM		> 100		> 100		> 100		> 100 µM		> 100 µM		> 100
CN(C)C(=O)c1cc2cnc(Nc3ccc(N4CCNCC4)cn3)nc2n1C1CCCC1	21 µM	69.2 µM	22.4 µM	86.8	12.2 µM	30.1 µM	15.4 µM	34 µM	8.48 µM	74.5	1.45 µM	73.1	11.4 µM	49.8	13.8 µM	53.5 µM	7.89 µM	> 100 µM	1.01 µM	62.9
Clc1ccc(N=CNc2ccc(-c3nc4ccccc4[nH]3)cc2)cc1	5.35 µM	> 100 µM	48.4 µM	> 100	76.6 µM	> 100 µM	0.386 µM	> 100 µM	> 100 µM	> 100	> 100 µM	> 100	68.1 µM	> 100	91.9 µM	> 100 µM	> 100 µM	> 100 µM	> 100 µM	> 100
CC(=O)OC1CCC2(C)C(=CCC3C4CC(CN5CC5)C(=O)C4(C)CCC32)C1 (stereo unspecified)	4.63 µM	14.8 µM	2.8 µM	9.55	14 µM	28.2 µM	11.7 µM	24.6 µM	11.8 µM	25	17.3 µM	33.2	7.91 µM	20.9	20.4 µM	65.8 µM	4.17 µM	15.7 µM	12.7 µM	26.8
O=C(NCc1cccnc1)c1ccc([N+](=O)[O-])o1	1.61 µM	6.89 µM	6.22 µM	> 19.8	4.91 µM	14.4 µM	1.06 µM	4.42 µM	16.1 µM	> 32.5	5.64 µM	18	2.9 µM	16.6	2.52 µM	> 9.5 µM	3.56 µM	> 15.5 µM	2.52 µM	> 19.1
CCn1c(SC)nnc1-c1cc2c([nH]c3ccccc32)c(-c2cccc(O)c2)n1	1.67 µM	5.35 µM	2.75 µM	13	1.88 µM	7.6 µM	1.27 µM	8.71 µM	2.43 µM	15.9	10 µM	43.1	2.77 µM	10.9	1.97 µM	9.76 µM	2.12 µM	6.47 µM	2.83 µM	> 100
COc1ccc(Cl)cc1Nc1nc(C(F)(F)F)ccc1C(=O)N/N=C/c1ccc(Cl)cc1	0.576 µM	1.66 µM	0.74 µM	> 100	0.954 µM	> 100 µM	8.01 µM	40.9 µM	5.44 µM	> 100	6.48 µM	> 100	1.22 µM	7.09	22.3 µM	> 100 µM	6.4 µM	66.2 µM	> 100 µM	> 100
COC(=O)/C(=C/c1ccc(OC)cc1)c1cc(OC)c(OC)c(OC)c1		2.63 µM		> 100		> 100 µM		37.4 µM		> 100		> 100		> 86		5.69 µM		> 100 µM		> 100
CN1CCN(Cc2ccc(NC(=O)c3cncc(C#Cc4cnc5cccnn45)c3)cc2C(F)(F)F)CC1	1.76 µM	5.5 µM	0.732 µM	3.68	0.639 µM	1.71 µM	1.33 µM	4.46 µM	0.798 µM	3.87	1.27 µM	6.04	1.14 µM	2.73	0.922 µM	3.26 µM	1.43 µM	4.9 µM	1.44 µM	5.75
COc1ccc(S(=O)(=O)NCCCNc2nccc(-c3c(-c4ccc(F)cc4)nc4sccn34)n2)cc1			3.07 µM	27.2	12.4 µM	50.3 µM	3.38 µM	74.8 µM	7.27 µM	> 100	32.7 µM	> 100	5.83 µM	> 100	3.58 µM	> 100 µM	2.73 µM	> 100 µM	8.74 µM	> 100
